According to PubChem BioAssay AID1199 (EPA DSSTox, 2008):
Active and inactive are the calls of the source.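 The calls were made as follows: active = a tumour-causing dose and a tumour site recorded for mice in at least one sex group; inconclusive = only government mouse studies exist and were judged inadequate; inactive = mouse studies exist but none gave tumours.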

Tested on: mouse carcinogenicity bioassay, TD50 from CPDB
Assay: DSSTox (CPDBAS) Carcinogenic Potency Database Summary Mouse Bioassay Results
Method in brief: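 Values are TD50 carcinogenic potencies from mouse chronic bioassays, taking the most positive result for each sex-species. Sources are published literature and NCI/NTP studies; target sites reflect author-reported positive findings.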

[1] = TD50_Mouse_Note: no positive results, TargetSites_Mouse_Female: no positive results
[2] = TargetSites_Mouse_Female: liver
[3] = TD50_Mouse_Note: TD50 is harmonic mean of more than one positive test, TargetSites_Mouse_Female: liver
[4] = TD50_Mouse_Note: TD50 is harmonic mean of more than one positive test, TargetSites_Mouse_Female: stomach
[5] = TargetSites_Mouse_Female: no positive results

| Structure (SMILES) | outcome [1] | further results |
| --- | --- | --- |
| S=C(SSSSSSC(=S)N1CCCCC1)N1CCCCC1 | inactive; no positive results |  |
| NC(=O)Cc1c([O-])on[n+]1Cc1ccccc1 |  | Potency [2]: 0.0437 mmol/kg/day |
| O=C1CCc2ccccc2O1 |  | Potency [2]: 4.88 mmol/kg/day |
| Nc1ccc2ccccc2c1 |  | Potency [3]: 0.275 mmol/kg/day |
| O.O.O.O.O.O.O.O.O=S(=O)([O-])[O-].O=S(=O)([O-])[O-].O=S(=O)([O-])[O-].[Cd+2].[Cd+2].[Cd+2] |  | outcome (TD50_Mouse_Note: no positive results): inactive; no positive results |
| OC[P+](CO)(CO)CO | inactive; no positive results |  |
| ClCc1ccccc1 |  | Potency [4]: 0.486 mmol/kg/day |
| COc1ccc(C(c2ccc(OC)cc2)C(Cl)(Cl)Cl)cc1 | inactive; no positive results |  |
| C=C1C(CCl)(CCl)C2(Cl)C(Cl)C(Cl)C1(Cl)C2(Cl)Cl (centres undefined) |  | outcome (TD50_Mouse_Note: TD50 is harmonic mean of more than one positive test, TD50_Mouse_mmol was not calculated for this mixture, but Activiity, TargetSites_Mouse_Female: liver): active; liver |
| NC(=O)CCCCn1ccc(NC(N)=NCC(F)(F)F)n1 |  | Potency [4]: 1.84 mmol/kg/day |
| NC(N)=NC(N)=NCCc1ccccc1 | inactive; no positive results |  |
| O=[N+]([O-])c1cc([N+](=O)[O-])c(Cl)c(Cl)c1Cl | inactive; no positive results |  |
| CN(C)C(=S)[S-].CN(C)C(=S)[S-].[Cu+2] | inactive; no positive results |  |
| c1ccc2[nH]c(-c3cscn3)nc2c1 | inactive; no positive results |  |
| CC/C(=C(\c1ccccc1)c1ccc(OCCN(C)C)cc1)c1ccccc1 |  | Potency (TD50_Mouse_Note: TD50 is harmonic mean of more than one positive test, TargetSites_Mouse_Female: ovary): 0.00779 mmol/kg/day |
| COc1nn(CSP(=S)(OC)OC)c(=O)s1 |  | Potency [5]: 0.02 mmol/kg/day |
| C#C[C@]1(O)CC[C@H]2[C@@H]3CCc4cc(OC)ccc4[C@H]3CC[C@@]21C | inactive; no positive results |  |
| OC[C@H]1O[C@@H]2O[C@H]3[C@H](O)[C@@H](O)[C@@H](O[C@H]4[C@H](O)[C@@H](O)[C@@H](O[C@H]5[C@H](O)[C@@H](O)[C@@H](O[C@H]6[C@H](O)[C@@H](O)[C@@H](O[C@H]7[C@H](O)[C@@H](O)[C@@H](O[C@H]8[C@H](O)[C@@H](O)[C@@H](O[C@H]1[C@H](O)[C@H]2O)O[C@@H]8CO)O[C@@H]7CO)O[C@@H]6CO)O[C@@H]5CO)O[C@@H]4CO)O[C@@H]3CO | inactive; no positive results |  |
| O=C(O)c1cc(N=Nc2ccc(S(=O)(=O)Nc3ccccn3)cc2)ccc1O |  | Potency [3]: 3.14 mmol/kg/day |
| O=C(OOC(=O)c1ccccc1)c1ccccc1 |  | outcome (TargetSites_Mouse_BothSexes: no positive results): inactive |
| CC(C)CON=O |  | Potency (TD50_Mouse_Note: TD50 is harmonic mean of more than one positive test, TargetSites_Mouse_Female: lung): 3.01 mmol/kg/day |
| NNC(N)=S | inactive; no positive results |  |

| Structure (SMILES) | outcome [1] | further results |
| --- | --- | --- |
| Nc1ccc([N+](=O)[O-])cc1 | inactive; no positive results |  |
| O=S(=O)(O)O |  | Potency (TD50_Mouse_Note: TD50 is harmonic mean of more than one positive test, greater than ten-fold variation among TD50 values for positive res, TargetSites_Mouse_Female: liver, lung): 0.0583 mmol/kg/day |
| ClCOCCCCOCCl | inactive |  |
| c1ccc2[nH]ccc2c1 | inactive |  |
| Clc1ccc(C(c2ccc(Cl)cc2)C(Cl)(Cl)Cl)cc1 |  | Potency (TD50_Mouse_Note: TD50 is harmonic mean of more than one positive test, greater than ten-fold variation among TD50 values for positive res, TargetSites_Mouse_Female: hematopoietic system, liver, lung): 0.0361 mmol/kg/day |
| Nc1ccc(Cc2ccc(N)cc2)cc1 |  | Potency (TD50_Mouse_Note: TD50 is harmonic mean of more than one positive test, TargetSites_Mouse_Female: hematopoietic system, liver, thyroid gland): 0.119 mmol/kg/day |
| CC(O)CN(C)c1ccc(NN)nn1 (centres undefined) | inactive; no positive results |  |
| Nc1ccc([N+](=O)[O-])cc1N | inactive; no positive results |  |
| O=C(O)C(Cl)Cl |  | Potency [3]: 0.923 mmol/kg/day |
| Nc1ccc(N=Nc2ccccc2)c(N)n1 |  | Potency [2]: 0.285 mmol/kg/day |
| COc1ccc(CN(CCN(C)C)c2ccccn2)cc1 | inactive; no positive results |  |
| NC(=S)NNS(=O)(=O)c1ccccc1 | inactive |  |
| Clc1cc2c(cc1Cl)Oc1cc(Cl)c(Cl)cc1O2 |  | Potency (TD50_Mouse_Note: TD50 is harmonic mean of more than one positive test, TargetSites_Mouse_Female: liver, thyroid gland): 4.85e-07 mmol/kg/day |
| OCc1ccco1 |  | Potency [5]: 2.68 mmol/kg/day |
| CCN(Cc1cccc(S(=O)(=O)O)c1)c1ccc(C(=C2C=CC(=[N+](CC)Cc3cccc(S(=O)(=O)O)c3)C=C2)c2ccc(O)cc2S(=O)(=O)[O-])cc1 | inactive; no positive results |  |
| O=C1O[C@H]([C@H](O)CO)C(O)=C1O | inactive; no positive results |  |
| Clc1nc(Cl)nc(Nc2ccccc2Cl)n1 | inactive; no positive results |  |
| CC(=O)C(N=Nc1ccc(-c2ccc(N=NC(C(C)=O)C(=O)Nc3ccccc3)c(Cl)c2)cc1Cl)C(=O)Nc1ccccc1 (centres undefined) | inactive; no positive results |  |
| CNC(=O)O/N=C(\SC)C(=O)N(C)C | inactive; no positive results |  |
| ClCOCc1ccc(COCCl)cc1 |  | Potency (TD50_Mouse_Note: positive test results only by intraperitoneal or intravenous injection, TargetSites_Mouse_Female: peritoneal cavity): 0.0132 mmol/kg/day |
| CC(C)NCC(O)c1ccc2ccccc2c1 (centres undefined) | inactive; no positive results |  |
| CCCC(Cl)CCC(Cl)CCC(Cl)CCC(Cl)CCC(Cl)CCC(Cl)CCC(C)Cl (centres undefined) |  | Potency [5]: 11.6 mmol/kg/day |
